Laboratory results from patent US9199946B2, “Pyrimidinone carboxamide inhibitors of endothelial lipase” (BRISTOL-MYERS SQUIBB COMPANY, priority 2012, dated 2015).
Read-outs that look alike come from different tables or passages of the source.

Molecular target: T1, Endothelial lipase (EL) (Homo sapiens, UniProt Q9Y5X9)
T1 construct: HT-1080 cells, which were transformed by RAGE technology (Athersys) to overexpress endogenous EL; endogenous in cells; conditioned medium used as the enzyme source
T1 sequence (Q9Y5X9 21-500): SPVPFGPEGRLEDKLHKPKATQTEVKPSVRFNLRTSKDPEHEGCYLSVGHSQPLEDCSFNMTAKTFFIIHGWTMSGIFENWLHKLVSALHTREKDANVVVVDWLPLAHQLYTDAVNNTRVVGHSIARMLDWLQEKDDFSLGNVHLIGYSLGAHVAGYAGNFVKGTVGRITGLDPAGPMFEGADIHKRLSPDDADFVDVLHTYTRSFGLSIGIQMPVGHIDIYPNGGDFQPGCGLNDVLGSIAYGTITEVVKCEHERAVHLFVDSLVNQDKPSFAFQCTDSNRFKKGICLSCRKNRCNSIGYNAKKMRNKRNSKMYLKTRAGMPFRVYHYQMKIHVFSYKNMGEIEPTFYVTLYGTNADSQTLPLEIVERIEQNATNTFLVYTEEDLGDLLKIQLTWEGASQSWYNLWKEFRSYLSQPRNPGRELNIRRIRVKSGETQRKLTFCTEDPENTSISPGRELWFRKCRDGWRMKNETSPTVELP
Assay: Endothelial lipase (EL) enzymatic assay with fluorescent substrate A10070 in DMPG vesicles
Format: biochemical
In short: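 EL activity was followed as a fluorescence rate (488/530 nm, reads every 20 s for 10 min, linear slope) on A10070 doped at 0.05 mole fraction into sonicated DMPG vesicles. Compound was first incubated 20 min at 37 °C, pH 8.0 HEPES/CaCl2 buffer, with conditioned media from EL-overexpressing HT-1080 cells.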

[1] = range observed in the EL assay, read-out: EL IC50 values
[2] = conditioned media from HT-1080 cells overexpressing endogenous EL, 20 min preincubation at 37° C., read-out: EL IC50

Row | SMILES | IC50 [1] [µM] | IC50 [2] [µM]
1 | O=C(N[C@H]1CC[C@@H](c2ccccc2)C1)c1[nH]c(=O)[nH]c(=O)c1O [Example 273, 5-hydroxy-2,6-dioxo-N-((1S,3R)-3-phenylcyclopentyl)-1,2,3,6-tetrahydropyrimidine-4-carboxamide] | ≤ 10 | –
2 | O=C(N[C@H]1CC[C@@H](c2ccccc2)CC1)c1[nH]c(=O)[nH]c(=O)c1NCCN1CCCCC1 [Example 237, 2,6-dioxo-N-((1s,4s)-4-phenylcyclohexyl)-5-(2-(piperidin-1-yl)ethylamino)-1,2,3,6-tetrahydropyrimidine-4-carboxamide] | ≤ 10 | –
3 | Nc1c(C(=O)N[C@H]2CC[C@@H](NC(=O)Cc3ccccc3)CC2)[nH]c(=O)[nH]c1=O [Example 116, 5-amino-2,6-dioxo-N-(cis-4-(2-phenylacetamido)cyclohexyl)-1,2,3,6-tetrahydropyrimidine-4-carboxamide] | ≤ 10 | –
4 | Nc1c(C(=O)N[C@@H]2CCc3cc(C(F)(F)F)ccc32)[nH]c(=O)[nH]c1=O [Example 27, (R)-5-amino-2,6-dioxo-N-(5-(trifluoromethyl)-2,3-dihydro-1H-inden-1-yl)-1,2,3,6-tetrahydropyrimidine-4-carboxamide] | ≤ 10 | –
5 | CCOC(=O)N1CCC(NC(=O)c2[nH]c(=O)[nH]c(=O)c2N)c2ccccc21 (single isomer, unassigned; enantiomer b) [Example 193, Ethyl 4-(5-amino-2,6-dioxo-1,2,3,6-tetrahydropyrimidine-4-carboxamido)-3,4-dihydroquinoline-1(2H)-carboxylate (Enantiomer B)] | ≤ 10 | –
6 | NC(=O)c1ccc(N2CCC(NC(=O)c3[nH]c(=O)[nH]c(=O)c3N)C2)nc1 (centres unmarked) [Example 188, 5-amino-N-(1-(5-carbamoylpyridin-2-yl)pyrrolidin-3-yl)-2,6-dioxo-1,2,3,6-tetrahydropyrimidine-4-carboxamide] | ≤ 10 | –
7 | Nc1c(C(=O)N[C@@H]2CCc3ccc(OCc4ccccc4)cc32)[nH]c(=O)[nH]c1=O [Example 91, (R)-5-amino-N-(6-(benzyloxy)-2,3-dihydro-1H-inden-1-yl)-2,6-dioxo-1,2,3,6-tetrahydropyrimidine-4-carboxamide] | ≤ 10 | –
8 | Nc1c(C(=O)N[C@H]2CC[C@@H](c3ccc(-c4ccnn4C4CCCCO4)cc3)C2)[nH]c(=O)[nH]c1=O (stereo partly drawn) [Example 176, 5-amino-2,6-dioxo-N-((1S,3R)-3-(4-(1-(tetrahydro-2H-pyran-2-yl)-1H-pyrazol-5-yl)phenyl)cyclopentyl)-1,2,3,6-tetrahydropyrimidine-4-carboxamide] | ≤ 10 | 1.09
9 | Nc1c(C(=O)N[C@H]2CC[C@H](c3ccccc3)C2)[nH]c(=O)[nH]c1=O [Example 76, 5-amino-2,6-dioxo-N-((1S,3S)-3-phenylcyclopentyl)-1,2,3,6-tetrahydropyrimidine-4-carboxamide] | ≤ 10 | –
10 | O=C(N[C@H]1CC[C@@H](c2cccc(C(F)(F)F)c2)CC1)c1[nH]c(=O)[nH]c(=O)c1O [Example 257, 5-hydroxy-2,6-dioxo-N-((1s,4s)-4-(3-(trifluoromethyl)phenyl)cyclohexyl)-1,2,3,6-tetrahydropyrimidine-4-carboxamide] | ≤ 10 | –
11 | CC(=O)Nc1ccccc1-c1ccc([C@@H]2CC[C@H](NC(=O)c3[nH]c(=O)[nH]c(=O)c3N)C2)cc1 [Example 162, N-((1S,3R)-3-(2′-acetamidobiphenyl-4-yl)cyclopentyl)-5-amino-2,6-dioxo-1,2,3,6-tetrahydropyrimidine-4-carboxamide] | ≤ 10 | –
12 | Nc1c(C(=O)NC2Cc3ccccc3C2Cc2ccccc2)[nH]c(=O)[nH]c1=O (centres unmarked) [Example 8, 5-amino-N-(1-benzyl-2,3-dihydro-1H-inden-2-yl)-2,6-dioxo-1,2,3,6-tetrahydropyrimidine-4-carboxamide] | ≤ 10 | –
13 | O=C(N[C@H]1CC[C@@H](c2ccccc2)CC1)c1[nH]c(=O)[nH]c(=O)c1NCCN1CCOCC1 [Example 211, 5-(2-morpholinoethylamino)-2,6-dioxo-N-(cis-4-phenylcyclohexyl)-1,2,3,6-tetrahydropyrimidine-4-carboxamide] | ≤ 10 | 0.291
14 | O=C(N[C@H]1CC[C@H](c2ccccc2)C1)c1[nH]c(=O)[nH]c(=O)c1O [Example 275, 5-hydroxy-2,6-dioxo-N-((1S,3S)-3-phenylcyclopentyl)-1,2,3,6-tetrahydropyrimidine-4-carboxamide] | ≤ 10 | –
15 | Nc1c(C(=O)N[C@@H]2CCc3c(OCc4ccccc4)cccc32)[nH]c(=O)[nH]c1=O [Example 86, (R)-5-ammo-N-(4-(benzyloxy)-2,3-dihydro-1H-inden-1-yl)-2,6-dioxo-1,2,3,6-tetrahydropyrimidine-4-carboxamide] | ≤ 10 | –
16 | CCOC(=O)[C@H]1CCC[C@H]1NC(=O)c1[nH]c(=O)[nH]c(=O)c1N [Example 61, (1S,2R)-ethyl 2-(5-amino-2,6-dioxo-1,2,3,6-tetrahydropyrimidine-4-carboxamido) cyclopentanecarboxylate] | ≤ 10 | –
17 | Nc1c(C(=O)N[C@H]2CC[C@H](c3ccccc3)c3ccccc32)[nH]c(=O)[nH]c1=O [Example 71, 5-amino-2,6-dioxo-N-((1S,4R)-4-phenyl-1,2,3,4-tetrahydronaphthalen-1-yl)-1,2,3,6-tetrahydropyrimidine-4-carboxamide] | ≤ 10 | –
18 | O=C(N[C@H]1CCCc2ccccc21)c1[nH]c(=O)[nH]c(=O)c1OCCO [Example 299, (S)-5-(2-Hydroxyethoxy)-2,6-dioxo-N-(1,2,3,4-tetrahydronaphthalen-1-yl)-1,2,3,6-tetrahydropyrimidine-4-carboxamide] | ≤ 10 | 9.56
19 | COc1ccccc1C1CCC(NC(=O)c2[nH]c(=O)[nH]c(=O)c2O)C1 (centres unmarked) [Example 292, 5-hydroxy-N-(3-(2-methoxyphenyl)cyclopentyl)-2,6-dioxo-1,2,3,6-tetrahydropyrimidine-4 carboxamide] | ≤ 10 | –
20 | CC(C)(C)OC(=O)N1CCC(NC(=O)c2[nH]c(=O)[nH]c(=O)c2N)c2ccccc21 (centres unmarked) [Example 16, tert-butyl 4-(5-amino-2,6-dioxo-1,2,3,6-tetrahydropyrimidine-4-carboxamido)-3,4-dihydroquinoline-1(2H)-carboxylate] | ≤ 10 | –
21 | CN(C)c1cccc(-c2ccc([C@@H]3CC[C@H](NC(=O)c4[nH]c(=O)[nH]c(=O)c4N)C3)cc2)c1 [Example 166, 5-amino-N-((1S,3R)-3-(3′-(dimethylamino)biphenyl-4-yl)cyclopentyl)-2,6-dioxo-1,2,3,6-tetrahydropyrimidine-4-carboxamide] | ≤ 10 | –
22 | CC(C)COc1ccc(C2CCC(NC(=O)c3[nH]c(=O)[nH]c(=O)c3N)C2)cc1 (centres unmarked) [Example 145, 5-amino-N-(3-(4-isobutoxyphenyl)cyclopentyl)-2,6-dioxo-1,2,3,6-tetrahydropyrimidine-4-carboxamide] | ≤ 10 | –
23 | O=C(N[C@H]1CC[C@@H](c2ccccc2)CC1)c1[nH]c(=O)[nH]c(=O)c1O [Example 238, Hydroxy-2,6-dioxo-N-(cis-4-phenylcyclohexyl)-1,2,3,6-tetrahydropyrimidine-4-carboxamide] | ≤ 10 | –
24 | CC(C)Oc1ccc(C2CCC(NC(=O)c3[nH]c(=O)[nH]c(=O)c3N)C2)cc1 (centres unmarked) [Example 142, 5-amino-N-(3-(4-isopropoxyphenyl)cyclopentyl)-2,6-dioxo-1,2,3,6-tetrahydropyrimidine-4 carboxamide] | ≤ 10 | 0.039
25 | CN1CCC(Nc2c(C(=O)N[C@H]3CC[C@@H](c4ccccc4)CC3)[nH]c(=O)[nH]c2=O)CC1 [Example 230, 5-(1-methylpiperidin-4-ylamino)-2,6-dioxo-N-(cis-4-phenylcyclohexyl)-1,2,3,6-tetrahydropyrimidine-4-carboxamide] | ≤ 10 | –
26 | Nc1c(C(=O)N[C@@H]2CCc3ccccc32)[nH]c(=O)[nH]c1=O [Example 9, (R)-5-amino-N-(2,3-dihydro-1H-inden-1-yl)-2,6-dioxo-1,2,3,6-tetrahydropyrimidine-4-carboxamide] | ≤ 10 | –
27 | Cc1nc(-c2ccccc2)sc1-c1ccc([C@@H]2CC[C@H](NC(=O)c3[nH]c(=O)[nH]c(=O)c3N)C2)cc1 (stereo in doubt) [Example 171, 5-amino-N-((1S,3R)-3-(4-(4-methyl-2-phenylthiazol-5-yl)phenyl)cyclopentyl)-2,6-dioxo-1,2,3,6-tetrahydropyrimidine-4-carboxamide] | ≤ 10 | 1.48
28 | O=C(N[C@H]1C[C@@H](c2ccccc2)c2ccccc21)c1[nH]c(=O)[nH]c(=O)c1O [Example 247, 5-hydroxy-2,6-dioxo-N-((1S,3S)-3-phenyl-2,3-dihydro-1H-inden-1-yl)-1,2,3,6-tetrahydropyrimidine-4-carboxamide] | ≤ 10 | –
29 | Nc1c(C(=O)NC2CCCc3c2sc2nc[nH]c(=O)c32)[nH]c(=O)[nH]c1=O (centres unmarked) [Example 45, 5-amino-2,6-dioxo-N-(4-oxo-1,4,5,6,7,8-hexahydro[1]benzothieno[2,3-d]pyrimidin-8-yl)-1,2,3,6-tetrahydro-4-pyrimidinecarboxamide] | ≤ 10 | 3.37
